In patent publication US20120328518A1, “PROSTATE SPECIFIC MEMBRANE ANTIGEN INHIBITORS” (PIRAMAL IMAGING SA, priority 2009, published 2012):

How the values were obtained:
LNCaP xenografts [1] = assay: PET/CT-imaging in LNCaP-tumor bearing mice; type: in vivo
PSMA (FOLH1) = biological target: T1, PSMA (FOLH1) (Homo sapiens, UniProt Q04609); assay: In vitro inhibition of NAALADase activity in LNCaP membrane extracts; type: biochemical; conditions: crude membrane extracts from LNCaP cells; release of [3H]-Glutamate from [3H]NAAG, pH7.4, 30 min at 37° C.; read-out: IC50 with respect to NAALADase activity
T1 construct: protein extracted from the membrane fraction of LNCaP cells; host or cells: LNCaP cells (crude membrane extract)
T1 sequence (Q04609 whole entry): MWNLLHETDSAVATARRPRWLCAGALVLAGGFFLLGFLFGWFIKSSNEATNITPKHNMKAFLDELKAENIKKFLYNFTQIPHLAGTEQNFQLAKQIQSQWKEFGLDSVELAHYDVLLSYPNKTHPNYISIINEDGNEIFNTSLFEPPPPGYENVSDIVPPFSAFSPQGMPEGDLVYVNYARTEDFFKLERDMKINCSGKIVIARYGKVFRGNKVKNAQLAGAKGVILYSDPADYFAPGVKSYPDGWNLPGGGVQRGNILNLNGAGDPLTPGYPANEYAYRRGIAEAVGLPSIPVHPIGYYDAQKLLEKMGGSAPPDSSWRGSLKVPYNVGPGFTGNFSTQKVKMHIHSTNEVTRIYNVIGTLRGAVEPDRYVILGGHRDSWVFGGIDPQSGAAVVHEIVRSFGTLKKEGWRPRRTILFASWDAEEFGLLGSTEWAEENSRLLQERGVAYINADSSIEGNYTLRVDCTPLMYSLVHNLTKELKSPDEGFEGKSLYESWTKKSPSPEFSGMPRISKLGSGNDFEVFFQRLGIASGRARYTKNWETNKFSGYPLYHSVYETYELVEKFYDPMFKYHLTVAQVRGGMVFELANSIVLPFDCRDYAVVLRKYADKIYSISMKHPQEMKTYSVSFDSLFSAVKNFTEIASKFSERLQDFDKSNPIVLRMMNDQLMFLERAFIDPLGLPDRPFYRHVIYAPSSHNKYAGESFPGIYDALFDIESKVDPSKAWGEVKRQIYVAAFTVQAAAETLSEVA
Description: NAALADase activity was assayed essentially as described previously (Slusher B S, Tsai G, Yoo G, Coyle J T. Immunocytochemical localization of the N-acetyl-aspartyl-glutamate hydrolyzing enzyme N-acetylated alpha-linked acidic dipeptidase [NAALADase]. J Comp Neurol 1992; 315:217-229) in crude membrane extracts from LNCaP tissue culture cells (ref ATCC CRL-1740). Briefly, the release of [3H]-Glutamate from [3H] N-acetyl-aspartyl-glutamate (NAAG) in 50 mM Tris-Cl buffer pH7.4 after 30 min at 37° C. was measured using 1-5 μg/ml of protein extracted from the membrane fraction of LNCaP cells; substrate and product were resolved by cation-exchange liquid chromatography.

[2] = Metabolic stability, rat microsomes (TLC); type: in vitro ADME; conditions: TLC after different timepoints
Description: (§1) Metabolic stability of Example F13 was assessed by incubating F13 in the presence of mouse, rat, and human microsomes and rat hepatocytes. After different timepoints TLC analysis was performed. No metabolism by microsomes or hepatocytes was found.

[3] = Metabolic stability, human microsomes (TLC); type: in vitro ADME; conditions: TLC after different timepoints
Description: as §1

[4] = Metabolic stability, mouse microsomes (TLC); type: in vitro ADME; conditions: TLC after different timepoints
Description: as §1

[5] = Biodistribution in LNCaP bearing nude mice; type: in vivo
Description: Male nude mice were implanted subcutaneously with 10 million LNCaP tumor cells, which were freshly expanded in a sterilized solution phosphate-buffered saline (PBS, pH 7.4). 4 weeks after inoculation the mice were injected into the tail vein with 150 kBq of radiolabeled Example F13, diluted in PBS (total injected volume 100 μl). At 30, 60, 120, and 180 min intervals, the mice (in groups of 3) were sacrificed and the organs of interest were collected, rinsed of excess blood, weighed and counted in a gamma-counter.

[6] = Metabolic stability, rat hepatocytes (TLC); type: in vitro ADME; conditions: TLC after different timepoints
Description: as §1

[7] = Stability in human plasma in vitro (TLC); type: in vitro ADME
Description: Stability of Example F13 was investigated in human plasma in vitro. The Example was analyzed by TLC at different time points. […] After two hours, 82% of Example F13 was still intact.

LNCaP xenografts [8] = assay: PET/CT-imaging in LNCaP-tumor bearing mice; type: in vivo; conditions: 50-70 min after injection of ~10 MBq
Description: Example F13 was imaged on a microPET/CT (Inveon, Siemens) in LNCaP tumor-bearing mice 50-70 min after injection of ˜10 MBq radiotracer Example F13.
Example F14 was imaged on a microPET/CT (Inveon, Siemens) in LNCaP tumor-bearing mice 50-70 min after injection of ˜10 MBq radiotracer Example F14.

[9] = 110-130 min after injection of ~10 MBq
[10] = 0.5 h after injection of 150 kBq into tail vein
[11] = 1.0 h after injection of 150 kBq into tail vein
[12] = 2.0 h after injection of 150 kBq into tail vein
[13] = 3.0 h after injection of 150 kBq into tail vein

For `O=C(O)C(F)CC(CP(=O)(O)O)C(=O)O` (racemic) [Example F3, rac-2-Fluoro-4-(phosphonomethyl)pentanedioic acid], the “blocking of tumor-contrast of radiotracer Example F15a” value (LNCaP xenografts [1]; 22 μg non-radioactive Example F3 with ~10 MBq Example F15a, 110-130 min) was “effectively blocked” and the IC50 (PSMA (FOLH1)) was 30 nM.

In the case of `O=C(O)C([18F])CC(CP(=O)(O)O)C(=O)O` (racemic) [Example F15a, rac-2-[^18F]-Fluoro-4-(phosphonomethyl)pentanedioic acid], the “background activity in PET/CT image” value (LNCaP xenografts [1]; [9]) is reported as “very low background activity”, the “kidney and bladder uptake in PET/CT image” value (“kidney and bladder uptake” for short) (LNCaP xenografts [1]; [9]) is reported as “strong kidney and bladder uptake” and the renal clearance (LNCaP xenografts [1]; [9]) is reported as “rapid renal clearance”. For the same compound, the “tumor-contrast in PET/CT image” value (LNCaP xenografts [1]; [9]) was “High tumor-contrast”.

In the case of `O=C(O)[C@H](C[C@@H](F)C(=O)O)CP(=O)(O)O` [Example F8, (2R,4S)-2-Fluoro-4-(phosphonomethyl)pentanedioic acid], the IC50 (PSMA (FOLH1)) is reported as 14 nM.

With `O=C(O)[C@H](C[C@H](F)C(=O)O)CP(=O)(O)O` [Example F10, (2S,4S)-2-Fluoro-4-(phosphonomethyl)pentanedioic acid] the IC50 (PSMA (FOLH1)) was 7 nM.

For `O=C(O)[C@H](C[C@H]([18F])C(=O)O)CP(=O)(O)O` [Example F13, (2S,4S)-2-[^18F]-Fluoro-4-(phosphonomethyl)pentanedioic acid], the metabolism by microsomes [2] was “No metabolism”, the metabolism by microsomes [3] was “No metabolism” and the metabolism by microsomes [4] was “No metabolism”. For the same compound, the “% Dosis/g adrenals” value [5, 10] was 3.31 % Dosis/g, the “% Dosis/g blood” value [5, 10] was 0.79 % Dosis/g and the “% Dosis/g bone” value [5, 10] was 2.61 % Dosis/g. For the same compound, the “% Dosis/g brain” value [5, 10] was 0.05 % Dosis/g, the “% Dosis/g fat” value [5, 10] was 0.78 % Dosis/g and the “% Dosis/g heart” value [5, 10] was 0.53 % Dosis/g. For the same compound, the “% Dosis/g intestine” value [5, 10] was 0.23 % Dosis/g, the “% Dosis/g kidney” value [5, 10] was 105.78 % Dosis/g and the “% Dosis/g liver” value [5, 10] was 0.40 % Dosis/g. The “% Dosis/g lung” value [5, 10] was 1.12 % Dosis/g, the “% Dosis/g muscle” value [5, 10] was 0.26 % Dosis/g and the “% Dosis/g pankreas” value [5, 10] was 0.45 % Dosis/g. The “% Dosis/g prostate” value [5, 10] was 0.69 % Dosis/g, the “% Dosis/g skin” value [5, 10] was 0.85 % Dosis/g and the “% Dosis/g spleen” value [5, 10] was 3.00 % Dosis/g. The “% Dosis/g stomach” value [5, 10] was 0.51 % Dosis/g, the “% Dosis/g tail” value [5, 10] was 4.69 % Dosis/g and the “% Dosis/g testes” value [5, 10] was 0.76 % Dosis/g. The “% Dosis/g thyroid” value [5, 10] was 0.68 % Dosis/g, the “% Dosis/g tumor” value [5, 10] was 5.31 % Dosis/g and the “% Dosis/g adrenals” value [5, 11] was 2.46 % Dosis/g. For the same compound, the “% Dosis/g blood” value [5, 11] was 0.33 % Dosis/g, the “% Dosis/g bone” value [5, 11] was 2.53 % Dosis/g and the “% Dosis/g brain” value [5, 11] was 0.06 % Dosis/g. The “% Dosis/g fat” value [5, 11] was 0.36 % Dosis/g, the “% Dosis/g heart” value [5, 11] was 0.27 % Dosis/g and the “% Dosis/g intestine” value [5, 11] was 0.23 % Dosis/g. The “% Dosis/g kidney” value [5, 11] was 105.40 % Dosis/g, the “% Dosis/g liver” value [5, 11] was 0.42 % Dosis/g and the “% Dosis/g lung” value [5, 11] was 0.49 % Dosis/g. For the same compound, the “% Dosis/g muscle” value [5, 11] was 0.21 % Dosis/g, the “% Dosis/g pankreas” value [5, 11] was 0.22 % Dosis/g and the “% Dosis/g prostate” value [5, 11] was 0.70 % Dosis/g. For the same compound, the “% Dosis/g skin” value [5, 11] was 0.76 % Dosis/g, the “% Dosis/g spleen” value [5, 11] was 2.48 % Dosis/g and the “% Dosis/g stomach” value [5, 11] was 0.26 % Dosis/g. The “% Dosis/g tail” value [5, 11] was 2.37 % Dosis/g, the “% Dosis/g testes” value [5, 11] was 0.50 % Dosis/g and the “% Dosis/g thyroid” value [5, 11] was 0.45 % Dosis/g. The “% Dosis/g tumor” value [5, 11] was 4.08 % Dosis/g, the “% Dosis/g adrenals” value [5, 12] was 0.51 % Dosis/g and the “% Dosis/g blood” value [5, 12] was 0.07 % Dosis/g. For the same compound, the “% Dosis/g bone” value [5, 12] was 1.52 % Dosis/g, the “% Dosis/g brain” value [5, 12] was 0.04 % Dosis/g and the “% Dosis/g fat” value [5, 12] was 0.17 % Dosis/g. For the same compound, the “% Dosis/g heart” value [5, 12] was 0.06 % Dosis/g, the “% Dosis/g intestine” value [5, 12] was 0.28 % Dosis/g and the “% Dosis/g kidney” value [5, 12] was 41.15 % Dosis/g. For the same compound, the “% Dosis/g liver” value [5, 12] was 0.24 % Dosis/g, the “% Dosis/g lung” value [5, 12] was 0.17 % Dosis/g and the “% Dosis/g muscle” value [5, 12] was 0.12 % Dosis/g. For the same compound, the “% Dosis/g pankreas” value [5, 12] was 0.07 % Dosis/g, the “% Dosis/g prostate” value [5, 12] was 0.66 % Dosis/g and the “% Dosis/g skin” value [5, 12] was 0.29 % Dosis/g. The “% Dosis/g spleen” value [5, 12] was 0.42 % Dosis/g, the “% Dosis/g stomach” value [5, 12] was 0.11 % Dosis/g and the “% Dosis/g tail” value [5, 12] was 1.73 % Dosis/g. The “% Dosis/g testes” value [5, 12] was 0.15 % Dosis/g, the “% Dosis/g thyroid” value [5, 12] was 0.18 % Dosis/g and the “% Dosis/g tumor” value [5, 12] was 3.13 % Dosis/g. For the same compound, the “% Dosis/g adrenals” value [5, 13] was 0.573 % Dosis/g, the “% Dosis/g blood” value [5, 13] was 0.08 % Dosis/g and the “% Dosis/g bone” value [5, 13] was 2.12 % Dosis/g. For the same compound, the “% Dosis/g brain” value [5, 13] was 0.03 % Dosis/g, the “% Dosis/g fat” value [5, 13] was 0.35 % Dosis/g and the “% Dosis/g heart” value [5, 13] was 0.08 % Dosis/g. The “% Dosis/g intestine” value [5, 13] was 1.03 % Dosis/g, the “% Dosis/g kidney” value [5, 13] was 46.96 % Dosis/g and the “% Dosis/g liver” value [5, 13] was 0.35 % Dosis/g. The “% Dosis/g lung” value [5, 13] was 0.16 % Dosis/g, the “% Dosis/g muscle” value [5, 13] was 0.06 % Dosis/g and the “% Dosis/g pankreas” value [5, 13] was 0.09 % Dosis/g. The “% Dosis/g prostate” value [5, 13] was 0.53 % Dosis/g, the “% Dosis/g skin” value [5, 13] was 0.24 % Dosis/g and the “% Dosis/g spleen” value [5, 13] was 0.41 % Dosis/g. For the same compound, the “% Dosis/g stomach” value [5, 13] was 0.20 % Dosis/g, the “% Dosis/g tail” value [5, 13] was 2.52 % Dosis/g and the “% Dosis/g testes” value [5, 13] was 0.20 % Dosis/g. The “% Dosis/g thyroid” value [5, 13] was 0.30 % Dosis/g, the “% Dosis/g tumor” value [5, 13] was 4.54 % Dosis/g and the metabolism by hepatocytes [6] was “No metabolism”. For the same compound, the “release of free fluoride upon incubation in human plasma” value ([7]; TLC at different time points) was “did not show increased release of free fluoride”, the “compound still intact in human plasma” value ([7]; after two hours, TLC) was 82% and the “background activity in PET/CT image” value (LNCaP xenografts [8]) was “very low background activity”. The “kidney and bladder uptake” value (LNCaP xenografts [8]) was “strong kidney and bladder uptake”, the renal clearance (LNCaP xenografts [8]) was “rapid renal clearance” and the “tumor-contrast in PET/CT image” value (LNCaP xenografts [8]) was “High tumor-contrast”.

With `O=C(O)[C@H](C[C@@H]([18F])C(=O)O)CP(=O)(O)O` [Example F14, (2R,4S)-2-[^18F]-Fluoro-4-(phosphonomethyl)pentanedioic acid] the “background activity in PET/CT image” value (LNCaP xenografts [8]) was “very low background activity”, the “kidney and bladder uptake” value (LNCaP xenografts [8]) was “strong kidney and bladder uptake” and the renal clearance (LNCaP xenografts [8]) was “rapid renal clearance”. For the same compound, the “tumor-contrast in PET/CT image” value (LNCaP xenografts [8]) was “High tumor-contrast”.
